Measurements from the kinase profiling compilation of Christmann-Franck et al. (2016).

How the values were obtained:
Assay in all cases: KINOMEscan competition binding
Settings in all cases: compound 0.1 µM
PLK3 (human) = PLK3 (human) (UniProt Q9H4B4)
[1] = system: EGFR (human), P00533 [G719C]
RPS6KA3 KD1 (human) = RPS6KA3 KD1 (human) (UniProt P51812)
PAK2 (human) = PAK2 (human) (UniProt Q13177)
TTK (human) = TTK (human) (UniProt P33981)
DYRK2 (human) = DYRK2 (human) (UniProt Q92630)
STK32B (human) = STK32B (human) (UniProt Q9NY57)
FYN (human) = FYN (human) (UniProt P06241)
MST1R (human) = MST1R (human) (UniProt Q04912)
STK32A (human) = STK32A (human) (UniProt Q8WU08)
NUAK1 (human) = NUAK1 (human) (UniProt O60285)
CSNK1G2 (human) = CSNK1G2 (human) (UniProt P78368)
PAK4 (human) = PAK4 (human) (UniProt O96013)
EPHB6 (human) = EPHB6 (human) (UniProt O15197)
EIF2AK1 (human) = EIF2AK1 (human) (UniProt Q9BQI3)
[2] = system: PIK3CA (human), P42336 [H1047L]
CLK4 (human) = CLK4 (human) (UniProt Q9HAZ1)
[3] = system: ABL1 (human), P00519 [M351T]
IRAK4 (human) = IRAK4 (human) (UniProt Q9NWZ3)
CAMKK1 (human) = CAMKK1 (human) (UniProt Q8N5S9)
MST4 (human) = MST4 (human) (UniProt Q9P289)
CSNK1E (human) = CSNK1E (human) (UniProt P49674)
MAPK13 (human) = MAPK13 (human) (UniProt O15264)
BRSK1 (human) = BRSK1 (human) (UniProt Q8TDC3)
AURKA (human) = AURKA (human) (UniProt O14965)
HUNK (human) = HUNK (human) (UniProt P57058)
PLK1 (human) = PLK1 (human) (UniProt P53350)
VRK2 (human) = VRK2 (human) (UniProt Q86Y07)
PIM3 (human) = PIM3 (human) (UniProt Q86V86)
[4] = system: FLT3 (human), P36888 [R834Q]
CSNK1A1 (human) = CSNK1A1 (human) (UniProt P48729)
CDK11B (human) = CDK11B (human) (UniProt P21127)
ANKK1 (human) = ANKK1 (human) (UniProt Q8NFD2)
[5] = system: PIK3CA (human), P42336 [I800L]
PIK3C2B (human) = PIK3C2B (human) (UniProt O00750)
DCLK2 (human) = DCLK2 (human) (UniProt Q8N568)
CSNK1D (human) = CSNK1D (human) (UniProt P48730)
MAPK4 (human) = MAPK4 (human) (UniProt P31152)
MAP2K2 (human) = MAP2K2 (human) (UniProt P36507)
CDK17 (human) = CDK17 (human) (UniProt Q00537)

MAP2K2 (human), sequence (P36507 whole entry, looked up): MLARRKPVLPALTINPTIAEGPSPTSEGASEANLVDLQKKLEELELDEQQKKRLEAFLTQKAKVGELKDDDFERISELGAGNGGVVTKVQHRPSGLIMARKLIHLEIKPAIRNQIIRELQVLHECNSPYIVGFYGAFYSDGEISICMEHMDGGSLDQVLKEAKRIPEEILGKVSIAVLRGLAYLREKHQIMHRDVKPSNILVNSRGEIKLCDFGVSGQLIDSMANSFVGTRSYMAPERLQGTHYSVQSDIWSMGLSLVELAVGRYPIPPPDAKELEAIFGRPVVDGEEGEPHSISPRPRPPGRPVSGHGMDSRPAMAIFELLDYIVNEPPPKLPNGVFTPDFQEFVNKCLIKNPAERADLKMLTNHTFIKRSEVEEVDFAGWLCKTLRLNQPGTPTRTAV
PIK3CA (human), P42336 [H1047L], sequence (P42336 whole entry H1047L, looked up): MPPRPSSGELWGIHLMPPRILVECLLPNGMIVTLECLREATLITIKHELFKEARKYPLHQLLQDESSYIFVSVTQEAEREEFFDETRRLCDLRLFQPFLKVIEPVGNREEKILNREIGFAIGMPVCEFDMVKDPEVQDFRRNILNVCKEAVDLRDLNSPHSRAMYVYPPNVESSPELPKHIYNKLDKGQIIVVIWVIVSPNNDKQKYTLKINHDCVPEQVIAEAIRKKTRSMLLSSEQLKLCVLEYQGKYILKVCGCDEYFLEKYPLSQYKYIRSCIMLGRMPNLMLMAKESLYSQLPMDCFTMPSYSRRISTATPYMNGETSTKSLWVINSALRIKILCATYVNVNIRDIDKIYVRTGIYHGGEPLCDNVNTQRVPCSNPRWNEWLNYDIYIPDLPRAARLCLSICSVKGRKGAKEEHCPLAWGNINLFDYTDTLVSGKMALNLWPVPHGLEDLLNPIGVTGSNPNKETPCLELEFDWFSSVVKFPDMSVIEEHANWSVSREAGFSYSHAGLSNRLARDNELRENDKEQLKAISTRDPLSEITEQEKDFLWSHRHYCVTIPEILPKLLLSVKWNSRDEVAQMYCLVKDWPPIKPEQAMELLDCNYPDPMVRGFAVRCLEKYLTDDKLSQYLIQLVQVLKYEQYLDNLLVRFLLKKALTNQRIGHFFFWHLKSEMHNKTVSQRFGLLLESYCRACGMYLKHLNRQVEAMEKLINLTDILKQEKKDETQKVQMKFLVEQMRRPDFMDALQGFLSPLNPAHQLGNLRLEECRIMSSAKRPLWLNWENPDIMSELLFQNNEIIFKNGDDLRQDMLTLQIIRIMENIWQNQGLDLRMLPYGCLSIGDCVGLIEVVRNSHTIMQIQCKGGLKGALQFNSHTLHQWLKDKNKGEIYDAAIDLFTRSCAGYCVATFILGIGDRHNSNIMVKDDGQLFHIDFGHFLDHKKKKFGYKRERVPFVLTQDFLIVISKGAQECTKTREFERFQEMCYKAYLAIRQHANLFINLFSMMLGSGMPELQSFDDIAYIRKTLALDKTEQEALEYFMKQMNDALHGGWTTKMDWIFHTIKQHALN
DYRK2 (human), sequence (Q92630 whole entry, looked up): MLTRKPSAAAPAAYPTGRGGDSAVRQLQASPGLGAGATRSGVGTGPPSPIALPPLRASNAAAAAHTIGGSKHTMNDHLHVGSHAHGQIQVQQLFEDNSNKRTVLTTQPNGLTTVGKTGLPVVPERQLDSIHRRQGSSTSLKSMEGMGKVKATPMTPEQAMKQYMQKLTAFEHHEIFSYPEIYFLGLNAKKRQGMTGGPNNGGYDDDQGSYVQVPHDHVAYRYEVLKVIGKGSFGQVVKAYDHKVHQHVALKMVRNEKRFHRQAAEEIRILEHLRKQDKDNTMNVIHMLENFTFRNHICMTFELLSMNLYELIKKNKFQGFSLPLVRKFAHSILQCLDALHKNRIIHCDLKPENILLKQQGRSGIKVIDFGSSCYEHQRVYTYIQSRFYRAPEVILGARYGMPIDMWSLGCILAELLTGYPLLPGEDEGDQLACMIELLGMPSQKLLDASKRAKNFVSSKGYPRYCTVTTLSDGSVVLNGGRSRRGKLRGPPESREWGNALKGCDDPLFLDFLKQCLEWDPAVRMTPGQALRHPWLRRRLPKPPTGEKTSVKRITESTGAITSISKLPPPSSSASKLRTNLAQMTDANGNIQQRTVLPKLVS
AURKA (human), sequence (O14965 whole entry, looked up): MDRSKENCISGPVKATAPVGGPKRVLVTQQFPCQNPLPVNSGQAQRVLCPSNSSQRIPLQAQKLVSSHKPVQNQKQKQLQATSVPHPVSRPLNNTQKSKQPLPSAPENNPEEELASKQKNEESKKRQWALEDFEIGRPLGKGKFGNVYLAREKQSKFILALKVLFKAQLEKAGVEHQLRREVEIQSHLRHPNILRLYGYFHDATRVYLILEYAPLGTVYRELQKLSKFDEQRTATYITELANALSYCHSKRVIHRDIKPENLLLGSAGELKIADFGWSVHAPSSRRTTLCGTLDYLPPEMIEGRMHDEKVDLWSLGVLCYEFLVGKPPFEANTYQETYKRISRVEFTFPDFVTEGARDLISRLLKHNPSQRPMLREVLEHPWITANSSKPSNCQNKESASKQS
TTK (human), sequence (P33981 whole entry, looked up): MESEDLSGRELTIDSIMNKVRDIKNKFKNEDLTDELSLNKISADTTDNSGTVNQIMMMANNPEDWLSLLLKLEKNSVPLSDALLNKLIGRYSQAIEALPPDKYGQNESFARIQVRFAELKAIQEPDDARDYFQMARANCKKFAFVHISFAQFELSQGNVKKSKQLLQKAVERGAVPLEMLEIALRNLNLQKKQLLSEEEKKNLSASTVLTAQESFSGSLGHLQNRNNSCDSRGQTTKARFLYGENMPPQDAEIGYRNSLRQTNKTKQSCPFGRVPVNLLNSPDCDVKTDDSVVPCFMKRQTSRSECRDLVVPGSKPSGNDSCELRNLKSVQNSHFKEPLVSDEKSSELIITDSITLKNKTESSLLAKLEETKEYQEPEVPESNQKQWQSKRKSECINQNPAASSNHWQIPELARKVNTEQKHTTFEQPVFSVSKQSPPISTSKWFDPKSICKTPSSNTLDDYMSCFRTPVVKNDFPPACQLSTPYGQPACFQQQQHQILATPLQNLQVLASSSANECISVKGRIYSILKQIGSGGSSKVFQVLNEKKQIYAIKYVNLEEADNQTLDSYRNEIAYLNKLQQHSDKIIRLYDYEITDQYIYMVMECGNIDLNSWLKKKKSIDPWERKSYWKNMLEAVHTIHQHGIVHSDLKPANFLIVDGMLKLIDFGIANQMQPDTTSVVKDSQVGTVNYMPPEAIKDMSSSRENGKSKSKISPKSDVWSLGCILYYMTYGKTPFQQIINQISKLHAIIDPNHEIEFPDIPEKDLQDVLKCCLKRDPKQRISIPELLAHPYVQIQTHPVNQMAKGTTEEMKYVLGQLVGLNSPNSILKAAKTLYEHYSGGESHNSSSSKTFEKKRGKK
STK32B (human), sequence (Q9NY57 whole entry, looked up): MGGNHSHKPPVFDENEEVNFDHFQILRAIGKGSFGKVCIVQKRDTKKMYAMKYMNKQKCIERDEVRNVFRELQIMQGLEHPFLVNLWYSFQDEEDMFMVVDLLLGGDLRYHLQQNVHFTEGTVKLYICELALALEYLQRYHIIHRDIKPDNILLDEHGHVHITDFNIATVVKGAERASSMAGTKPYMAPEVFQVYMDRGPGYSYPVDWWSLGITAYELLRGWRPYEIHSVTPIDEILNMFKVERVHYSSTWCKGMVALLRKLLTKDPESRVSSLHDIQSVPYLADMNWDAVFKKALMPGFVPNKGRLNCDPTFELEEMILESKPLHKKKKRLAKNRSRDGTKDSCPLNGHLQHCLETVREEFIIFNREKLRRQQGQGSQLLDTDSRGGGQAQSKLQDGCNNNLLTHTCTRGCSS
MAPK4 (human), sequence (P31152 whole entry, looked up): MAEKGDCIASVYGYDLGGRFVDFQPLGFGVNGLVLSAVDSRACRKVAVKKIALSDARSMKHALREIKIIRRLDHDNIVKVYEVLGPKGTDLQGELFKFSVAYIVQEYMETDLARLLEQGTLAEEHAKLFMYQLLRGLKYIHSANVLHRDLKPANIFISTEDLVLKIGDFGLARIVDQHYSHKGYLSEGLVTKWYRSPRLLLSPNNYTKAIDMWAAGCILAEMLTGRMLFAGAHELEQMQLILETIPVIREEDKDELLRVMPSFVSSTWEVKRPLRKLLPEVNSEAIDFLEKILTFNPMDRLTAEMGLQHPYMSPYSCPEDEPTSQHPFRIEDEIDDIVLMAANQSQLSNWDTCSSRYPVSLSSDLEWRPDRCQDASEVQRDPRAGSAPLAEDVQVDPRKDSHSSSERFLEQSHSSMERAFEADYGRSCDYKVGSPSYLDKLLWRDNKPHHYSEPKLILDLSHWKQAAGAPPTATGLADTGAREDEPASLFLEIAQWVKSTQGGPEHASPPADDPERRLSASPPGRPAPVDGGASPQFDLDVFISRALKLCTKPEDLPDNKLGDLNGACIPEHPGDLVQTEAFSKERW
FYN (human), sequence (P06241 whole entry, looked up): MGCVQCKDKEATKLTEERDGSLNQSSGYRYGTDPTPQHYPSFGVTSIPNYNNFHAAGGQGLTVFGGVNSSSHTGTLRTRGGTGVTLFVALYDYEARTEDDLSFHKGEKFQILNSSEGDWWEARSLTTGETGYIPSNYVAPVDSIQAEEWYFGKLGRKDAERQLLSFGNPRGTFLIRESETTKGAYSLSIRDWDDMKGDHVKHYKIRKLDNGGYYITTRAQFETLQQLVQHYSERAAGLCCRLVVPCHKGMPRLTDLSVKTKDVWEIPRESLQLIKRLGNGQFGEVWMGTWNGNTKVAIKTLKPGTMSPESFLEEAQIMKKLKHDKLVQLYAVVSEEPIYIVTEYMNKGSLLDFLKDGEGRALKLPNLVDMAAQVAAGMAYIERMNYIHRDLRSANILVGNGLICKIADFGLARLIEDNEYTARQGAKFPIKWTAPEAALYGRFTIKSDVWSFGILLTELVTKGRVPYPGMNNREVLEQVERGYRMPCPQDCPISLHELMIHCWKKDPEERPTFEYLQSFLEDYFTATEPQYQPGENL
PIK3CA (human), P42336 [I800L], sequence (P42336 whole entry I800L, looked up): as the sequence (P42336 whole entry H1047L, looked up) above, with I800L, L1047H counted along it

CCc1ccc(C(=O)Nc2cc(CN3CCN(C)CC3)cc(C(F)(F)F)c2)cc1C#Cc1cnc2ccnn2c1
kinase still bound, per cent of control (PLK3 (human)): 100% | kinase still bound, per cent of control [1]: 100% | kinase still bound, per cent of control (RPS6KA3 KD1 (human)): 100% | kinase still bound, per cent of control (PAK2 (human)): 76% | kinase still bound, per cent of control (TTK (human)): 77% | kinase still bound, per cent of control (DYRK2 (human)): 86% | kinase still bound, per cent of control (STK32B (human)): 100% | kinase still bound, per cent of control (FYN (human)): 72% | kinase still bound, per cent of control (MST1R (human)): 66% | kinase still bound, per cent of control (STK32A (human)): 69% | kinase still bound, per cent of control (NUAK1 (human)): 100% | kinase still bound, per cent of control (CSNK1G2 (human)): 100% | kinase still bound, per cent of control (PAK4 (human)): 80% | kinase still bound, per cent of control (EPHB6 (human)): 100% | kinase still bound, per cent of control (EIF2AK1 (human)): 100% | kinase still bound, per cent of control [2]: 100% | kinase still bound, per cent of control (CLK4 (human)): 100% | kinase still bound, per cent of control [3]: 100% | kinase still bound, per cent of control (IRAK4 (human)): 100% | kinase still bound, per cent of control (CAMKK1 (human)): 69% | kinase still bound, per cent of control (MST4 (human)): 100% | kinase still bound, per cent of control (CSNK1E (human)): 85% | kinase still bound, per cent of control (MAPK13 (human)): 69% | kinase still bound, per cent of control (BRSK1 (human)): 100% | kinase still bound, per cent of control (AURKA (human)): 100% | kinase still bound, per cent of control (HUNK (human)): 100% | kinase still bound, per cent of control (PLK1 (human)): 80% | kinase still bound, per cent of control (VRK2 (human)): 100% | kinase still bound, per cent of control (PIM3 (human)): 77% | kinase still bound, per cent of control [4]: 100% | kinase still bound, per cent of control (CSNK1A1 (human)): 100% | kinase still bound, per cent of control (CDK11B (human)): 100% | kinase still bound, per cent of control (ANKK1 (human)): 100% | kinase still bound, per cent of control [5]: 100% | kinase still bound, per cent of control (PIK3C2B (human)): 100% | kinase still bound, per cent of control (DCLK2 (human)): 100% | kinase still bound, per cent of control (CSNK1D (human)): 77% | kinase still bound, per cent of control (MAPK4 (human)): 90% | kinase still bound, per cent of control (MAP2K2 (human)): 100% | kinase still bound, per cent of control (CDK17 (human)): 100%
